Measured values published in US20040115284A1, “Use of gamma-GT inhibitors for the treatment of degenerative diseases” (priority 2001, published 2004).
Marks after values point to notes of the source that are not given here.

Tests used:
[1] = system: pGPx mRNA; test: pGPx mRNA level by quantitative RT-PCR in Mpv17−/− cells; type: cell-based, mouse; conditions: Mpv17−/− cells with acivicin (γ-GT inhibition), FIG. 2B; β-actin reference
Text: (§1) Kidneys from background mice (CFW×Balb/c) and transgenic homozygous Mpv17-/- mice ([…]. Noda, D. A. Gray, A. H. Sharpe and R. Jaenisch (1990), Cell, 62, pp. 425434) were obtained at an age of 7 to 9 months and frozen in liquid nitrogen. LUSVX cells (SV40 immortalised fibroblasts from the lungs of Mpv17-/- mice), and NIX1 5 cells (Mpv+/+ cells derived from LUSVX cells by stable transfection of an expression construct for the human Mpv17 cDNA) (A. Reuter. […]. Tuckermann, […]. Wagner, […]. Meyer zum Gottesberge, P. Angel and […] (1998), Molecular Biology of the Cell, 9, pp. 1675-1682) were grown in DMEM including 10% fetal calf serum (FCS) and 1 μg/ml puromycin (NIX15 cultures) at 6.5% CO2 Cells were harvested by trypsinisation and each 5×10^6 cells were washed in 1.5 ml of phosphate-buffered saline (PBS) before freezing the pellet in liquid nitrogen. […] Noda, M. Kohno, A. Mori and L. […] Kidneys and cells were stored frozen at -80° C. mRNA levels were also measured. In particular, levels of mRNA were determined by quantitative RT-PCR. […] Amplified mRNA was separated on 1.5% agarose gels in Tris borate buffer (F. M. Ausubel (1995) Short protocols in molecular biology: a compendium of methods from current protocols in molecular biology. Wiley Press, New York) visualized with vista green (Amersham, Freiburg, FRG) and quantified with a FLA2000 Imager (FUJI).

[2] = system: Glutathione Peroxidase; test: Glutathione peroxidase activity in Mpv17 −/− cells (LUSVX) grown in presence of MnTBAP or acivicin; type: cell-based, mouse
Text: (§2) Kidneys from background mice (CFW×Balb/c) and transgenic homozygous Mpv17−/− mice (H. Weiher, T. Noda, D. A. Gray, A. H. Sharpe and R. Jaenisch (1990), Cell, 62, pp. 425434) were obtained at an age of 7 to 9 months and frozen in liquid nitrogen. LUSVX cells (SV40 immortalised fibroblasts from the lungs of Mpv17−/− mice), and NIX1 5 cells (Mpv+/+ cells derived from LUSVX cells by stable transfection of an expression construct for the human Mpv17 cDNA) (A. Reuter. A. Nestl, R. M. Zwacka, J. Tuckermann, R. Waldherr, E. M. Wagner, M. Hoyhtya, A. M. Meyer zum Gottesberge, P. Angel and H. Weiher (1998), Molecular Biology of the Cell, 9, pp. 1675-1682) were grown in DMEM including 10% fetal calf serum (FCS) and 1 μg/ml puromycin (NIX15 cultures) at 6.5% CO2 Cells were harvested by trypsinisation and each 5×10^6 cells were washed in 1.5 ml of phosphate-buffered saline (PBS) before freezing the pellet in liquid nitrogen. Where indicated, Mn(III)tetrakis(4-benzoic acid)porphyrin (MnTBAP), final concentration 10 μM (Y. Noda, M. Kohno, A. Mori and L. Packer (1999), Methods in Enzymology, 299, pp. 28-34) (Calbiochem, Schwalbach, FRG), or the γ-GT inhibitor acivicin (AT-125), final concentration 50 μM (Sigma, Deisenhofen, FRG) were added in DMEM/10% FCS 18 h before harvesting the cells. Kidneys and cells were stored frozen at −80° C.
Cell fractions were prepared by differential centrifugation from 20% tissue and cell homogenates (w/v) in 10 mM potassium phosphate buffer, pH 7.0, containing 0.25 M sucrose, 150 mM potassium chloride, 1 mM EDTA, 2 mM dithiothreitol, and 50 μM phenylmethylsulfonyl fluoride. Enzyme activities were determined at 25° C.: catalase in the 25,000×g (10 min) pellet H. E. Aebi (1983), In Methods of Enzymatic Analysis (ed. H. U. Bergmeyer), Verlag Chemie, Weinheim, pp. 273-276); glutathione peroxidase (GPx) (R. A. Lawrence and R. F. Burk (1976), Biochemical Biophysical Research Communications, 71, pp. 952-958), GSSG reductase (Goldberg, D. M. S. R. F. (1983) In Methods of Enzymatic Analysis (ed. H. U. Bergmeyer) Verlag Chemie, Weinheim, pp. 258-265), glutathione transferase (GST) with 1-chloro-2,4-dinitrobenzene (CDNB) W. H. Habig, M. J. Pabst and W. B. Jakoby (1974), Journal Biological Chemistry, 249, pp. 7130-7139, and superoxide dismutase (SOD) (S. Marklund and G. Marklund (1974), European Journal of Biochemistry, 47, pp. 469-474) in the 105,000×g (45 min) supernatant; γ-glutamyl transpeptidase (γ-GT) ) (S. Marklund and G. Marklund (1974), European Journal of Biochemistry, 47, pp. 469-474) in the resuspended 105,000×g pellet containing 1% Triton X-100. Protein was measured by the method of Bradford using bovine serum albumin as standard (M. M. Bradford (1976), Analytical Biochemistry, 72, pp. 248-254).

[3] = biological target: T1, γ-GT (Rattus norvegicus, UniProt P07314); conditions: short-term ischemia of rat kidney; Cutrin et al. 2000; cited from earlier work
T1 construct: oxidation damage during short-term ischemia of rat kidney

[4] = system: SOD mRNA; test: SOD mRNA levels by quantitative RT-PCR in Mpv17−/− cells; type: cell-based, mouse; conditions: Mpv17−/− cells with acivicin (γ-GT inhibition), FIG. 2B; β-actin reference
Text: as §1

[5] = biological target: T2, γ-Glutamyl Transpeptidase (Mus musculus, UniProt Q60928); test: γ-glutamyl transpeptidase activity in Mpv17 −/− cells (LUSVX) grown in presence of MnTBAP or acivicin; type: cell-based
T2 construct: in the resuspended 105,000×g pellet containing 1% Triton X-100; endogenous in cells; host or cells: LUSVX cells (SV40-immortalised lung fibroblasts from Mpv17−/− mice)
Text: as §2
Cell fractions were prepared by differential centrifugation from 20% tissue and cell homogenates (w/v) in 10 mM potassium phosphate buffer, pH 7.0, containing 0.25 M sucrose, 150 mM potassium chloride, 1 mM EDTA, 2 mM dithiothreitol, and 50 μM phenylmethylsulfonyl fluoride. […] Protein was measured by the method of Bradford using bovine serum albumin as standard (M. M. Bradford (1976), Analytical Biochemistry, 72, pp. 248-254).

[6] = LUSVX cells, MnTBAP 10 μM or acivicin 50 μM added 18 h before harvesting, means ± SEM (n = 3)
[7] = Mpv17−/− cells (LUSVX) grown in the presence of MnTBAP

T2 sequence (Q60928 1-379 limits assumed): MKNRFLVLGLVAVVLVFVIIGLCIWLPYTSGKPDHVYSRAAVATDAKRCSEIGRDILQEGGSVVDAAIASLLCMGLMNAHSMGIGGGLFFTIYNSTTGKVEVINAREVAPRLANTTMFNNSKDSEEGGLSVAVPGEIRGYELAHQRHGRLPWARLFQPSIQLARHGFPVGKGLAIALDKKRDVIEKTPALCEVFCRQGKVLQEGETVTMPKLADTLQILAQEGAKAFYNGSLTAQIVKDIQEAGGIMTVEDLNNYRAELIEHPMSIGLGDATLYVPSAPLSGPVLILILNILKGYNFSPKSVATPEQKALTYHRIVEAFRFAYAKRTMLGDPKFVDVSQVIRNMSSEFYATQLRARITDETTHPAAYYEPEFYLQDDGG
T2 sequence (Q60928 380-568 limits assumed): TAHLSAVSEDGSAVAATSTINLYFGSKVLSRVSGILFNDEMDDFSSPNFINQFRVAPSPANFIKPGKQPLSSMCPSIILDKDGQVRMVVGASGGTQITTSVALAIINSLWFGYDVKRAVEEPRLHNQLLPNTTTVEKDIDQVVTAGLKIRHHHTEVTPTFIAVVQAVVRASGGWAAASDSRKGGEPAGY
T1 sequence (P07314 1-379 limits assumed): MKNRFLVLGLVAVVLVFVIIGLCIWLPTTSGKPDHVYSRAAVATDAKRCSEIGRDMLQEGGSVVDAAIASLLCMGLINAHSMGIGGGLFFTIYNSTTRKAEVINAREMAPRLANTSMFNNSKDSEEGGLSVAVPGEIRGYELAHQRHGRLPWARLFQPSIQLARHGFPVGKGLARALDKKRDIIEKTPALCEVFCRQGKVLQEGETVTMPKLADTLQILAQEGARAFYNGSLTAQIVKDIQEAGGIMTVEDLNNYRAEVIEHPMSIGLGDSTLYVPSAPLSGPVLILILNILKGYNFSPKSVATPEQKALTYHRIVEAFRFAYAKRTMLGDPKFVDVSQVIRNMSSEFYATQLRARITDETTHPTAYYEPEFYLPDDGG
T1 sequence (P07314 380-568 limits assumed): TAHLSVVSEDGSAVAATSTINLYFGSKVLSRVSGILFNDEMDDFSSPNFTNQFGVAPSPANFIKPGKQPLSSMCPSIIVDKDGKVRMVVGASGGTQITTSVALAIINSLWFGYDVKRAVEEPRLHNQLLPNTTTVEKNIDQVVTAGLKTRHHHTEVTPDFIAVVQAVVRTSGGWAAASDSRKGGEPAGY

SMILES | pGPx mRNA level [1] | Glutathione Peroxidase activity [2, 6] | increase of GPx activity ([2]; Mpv17−/− cells grown in the presence of acivicin) | activity at 50 µM ([2]; Mus musculus, LUSVX cells, MnTBAP 10 μM or acivicin 50 μM, 18 h, relative to untreated LUSVX, read-out: Glutathione Peroxidase activity, % of controls) [%] | oxidation damage caused by γ-GT upregulation [3] | SOD mRNA levels [4] | γ-Glutamyl Transpeptidase activity [5, 6] | γ-Glutamyl Transpeptidase activity, % of controls ([5]; LUSVX cells, MnTBAP 10 μM, 18 h, relative to untreated LUSVX) | change of γ-GT activity (in words) [5, 7] | Glutathione Peroxidase activity, % of controls ([2]; LUSVX cells, MnTBAP 10 μM or acivicin 50 μM, 18 h, relative to untreated LUSVX) | change of GPx activity (in words) [2, 7]
N[C@H](C(=O)O)[C@@H]1CC(Cl)=NO1 [acivicin] | significant increase | 53.5 ± 2.0 nmol/min per mg of protein | about 1.6 fold | 162 | inhibitable | significant increase |  |  |  |  | 
O=C(O)c1ccc(-c2c3nc(c(-c4ccc(C(=O)O)cc4)c4ccc([n-]4)c(-c4ccc(C(=O)O)cc4)c4nc(c(-c5ccc(C(=O)O)cc5)c5ccc2[n-]5)C=C4)C=C3)cc1.[Mn+3] [MnTBAP, Mn(III)tetrakis(4-benzoic acid)porphyrin] |  |  |  |  |  |  | 0.94 ± 0.03 nmol/min per mg of protein | (95%) | Neither γ-GT nor GPx activities were changed significantly | (104%)^a) | Neither γ-GT nor GPx activities were changed significantly
